± gives the expanded uncertainty stated by the source.
Settings: 293 K; 101.33 kPa; Crystal; X-ray diffraction

molar volume: 4.271e-05 ± 5.1e-07 m3/mol
SMILES: O=P([O-])([O-])[O-].[Er+3] [erbium phosphate]

Source: the NIST ThermoML archive (doi:10.1016/j.tca.2012.02.002)
